From the NIST ThermoML archive (doi:10.1021/acs.jced.7b00788)
Numbers after ± are expanded uncertainties.

Experiments:
[1] = 100 kPa, Liquid; for viscosity: Concentric cylinders viscometry; for mass density: Vibrating tube method
[2] = xn = mol fraction of the nth substance listed; details: 100 kPa, Liquid, x1 = 1; for viscosity: Concentric cylinders viscometry; for mass density: Vibrating tube method

CCOP(=O)([O-])OCC.CCn1cc[n+](C)c1 [1-ethyl-3-methylimidazolium diethyl phosphate]
[1]
Details	mass density [kg/m3]	viscosity [mPa·s]
293.15 K	1151.2 ± 1.2	540 ± 30
303.15 K	1144.2 ± 1.2	274 ± 15
313.15 K	1137.4 ± 1.2	154 ± 8
323.15 K	1130.7 ± 1.2	94 ± 4.4
333.15 K	1124.1 ± 1.2	61.2 ± 2.8
343.15 K	1117.5 ± 1.2	42.1 ± 1.9
353.15 K	1111 ± 1.1	30.2 ± 1.3
363.15 K	1104.5 ± 1.1	22.5 ± 1
373.15 K	1098.2 ± 1.1	17.3 ± 0.7

C[S+](C)[O-] [dimethyl sulfoxide]
[1]
Details	mass density [kg/m3]	viscosity [mPa·s]
293.15 K	1101.2 ± 0.7	2.31 ± 0.09
303.15 K	1091.2 ± 0.7	1.89 ± 0.08
313.15 K	1081.1 ± 0.7	1.57 ± 0.06
323.15 K	1071.1 ± 0.7	1.33 ± 0.05
333.15 K	1061.2 ± 0.7	1.15 ± 0.05
343.15 K	1051.3 ± 0.7	1.01 ± 0.04
353.15 K	1041.1 ± 0.7	0.893 ± 0.037
363.15 K	1031.3 ± 0.7	0.799 ± 0.033
373.15 K	1021.4 ± 0.7	0.721 ± 0.03

O [water]
[1]
Details	mass density [kg/m3]	viscosity [mPa·s]
293.15 K	1000.1 ± 0.5	1 ± 0.04
303.15 K	998 ± 0.5	0.805 ± 0.034
313.15 K	994.3 ± 0.5	0.651 ± 0.027
323.15 K	–	0.544 ± 0.023
333.15 K	985.2 ± 0.6	0.472 ± 0.02
343.15 K	979.6 ± 0.6	0.417 ± 0.018
353.15 K	973.3 ± 0.6	0.342 ± 0.015

O [water] + CCOP(=O)([O-])OCC.CCn1cc[n+](C)c1
[2]
Details	mass density [kg/m3]	viscosity [mPa·s]
293.15 K	1000.1 ± 0.5	1 ± 0.04
303.15 K	998 ± 0.5	0.805 ± 0.034
313.15 K	994.3 ± 0.5	0.651 ± 0.027
323.15 K	–	0.544 ± 0.023
333.15 K	985.2 ± 0.6	0.472 ± 0.02
343.15 K	979.6 ± 0.6	0.417 ± 0.018
353.15 K	973.3 ± 0.6	0.342 ± 0.015
